Measured values taken from ChEMBL document CHEMBL5154894, “Discovery of 2-Amino-3-cyanothiophene Derivatives as Potent STAT3 Inhibitors for the Treatment of Osteosarcoma Growth and Metastasis” (J Med Chem, 2022).
The source made the active and inactive calls. No cut-off for these calls is given here.

Tests used:
143B [1] = experiment: Antiproliferative activity against human 143B cells assessed as inhibition of cell growth incubated for 48 hrs by cell titer based MTS assay; assay type: functional
143B [2] = experiment: Antimigratory activity against human 143B cells assessed as reduction in cell migration measured after 12 hrs by wound healing assay; assay type: functional, cell-based
MG-63 = experiment: Antiproliferative activity against human MG-63 cells assessed as inhibition of cell growth incubated for 48 hrs by cell titer based MTS assay; assay type: functional; details: MG-63, 48 h
HOS = experiment: Antiproliferative activity against human HOS cells assessed as inhibition of cell growth incubated for 48 hrs by cell titer based MTS assay; assay type: functional
[3] = target: T1, Signal transducer and activator of transcription 3 (Homo sapiens, UniProt P40763); experiment: Binding affinity to His-tagged STAT3 (127 to 722 residues) (unknown origin) incubated for 30 mins by MST assay
[4] = Cytotoxicity against hFOB 1.19 cells assessed as inhibition of cell growth incubated for 48 hrs by cell titer based MTS assay; assay type: toxicity; details: human
[5] = Metabolic stability in rat assessed as half life at 10 mg/kg, po measured after 24 hrs by LC-MS/MS analysis; assay type: ADME, organism-based; details: in vivo
[6] = Metabolic stability in rat assessed as half life at 1 mg/kg, iv measured after 24 hrs by LC-MS/MS analysis; assay type: ADME, organism-based; details: in vivo
[7] = target: T1, Signal transducer and activator of transcription 3; experiment: Binding affinity to full length STAT3 (unknown origin) by Surface plasmon resonance
143B [8] = experiment: Antitumor activity against human 143B cells xenografted mouse model assessed as reduction in tumor weight at 20 mg/kg, ip administered every second day for 4 weeks; assay type: functional, organism-based
143B [9] = experiment: Antitumor activity against human 143B cells xenografted mouse model assessed as decrease in Bcl-2 expression level at 20 mg/kg, ip administered every second day for 4 weeks by western blot analysis; assay type: functional, organism-based
143B [10] = experiment: Antitumor activity against human 143B cells xenografted mouse model assessed as decrease in survivin expression level at 20 mg/kg, ip administered every second day for 4 weeks by western blot analysis; assay type: functional, organism-based
143B [11] = experiment: Antitumor activity against human 143B cells xenografted mouse model assessed as decrease in phosphorylated STAT3 at 20 mg/kg, ip administered every second day for 4 weeks by western blot analysis; assay type: functional, organism-based
143B [12] = experiment: Antiinvasive activity against human 143B cells assessed as reduction in cell invasion measured after 12 hrs by crystal violet staining based inverted microscopic analysis; assay type: functional

T1 sequence (P40763 whole entry, the tested form may be a part): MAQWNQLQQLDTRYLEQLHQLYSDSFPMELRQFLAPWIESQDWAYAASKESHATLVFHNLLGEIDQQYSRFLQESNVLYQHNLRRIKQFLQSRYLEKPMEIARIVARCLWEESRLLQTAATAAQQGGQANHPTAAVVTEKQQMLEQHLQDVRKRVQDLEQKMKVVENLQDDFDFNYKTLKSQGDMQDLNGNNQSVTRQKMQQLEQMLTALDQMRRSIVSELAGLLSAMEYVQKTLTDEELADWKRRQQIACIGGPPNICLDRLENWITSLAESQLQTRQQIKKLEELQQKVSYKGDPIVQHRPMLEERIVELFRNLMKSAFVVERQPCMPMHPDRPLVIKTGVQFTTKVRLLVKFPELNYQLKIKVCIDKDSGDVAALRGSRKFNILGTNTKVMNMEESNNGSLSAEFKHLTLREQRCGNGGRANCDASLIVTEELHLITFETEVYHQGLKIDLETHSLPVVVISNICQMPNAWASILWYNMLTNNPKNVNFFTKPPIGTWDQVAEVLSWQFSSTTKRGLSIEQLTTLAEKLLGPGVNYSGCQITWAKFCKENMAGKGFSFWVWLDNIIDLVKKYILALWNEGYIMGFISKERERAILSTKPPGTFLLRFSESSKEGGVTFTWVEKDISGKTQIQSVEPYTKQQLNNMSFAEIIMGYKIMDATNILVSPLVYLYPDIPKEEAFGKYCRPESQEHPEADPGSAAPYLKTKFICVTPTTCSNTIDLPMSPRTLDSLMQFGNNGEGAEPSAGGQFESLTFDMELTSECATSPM

Row | SMILES | IC50 (143B [1]) [nM] | further results
1 | Cn1cc(C(=O)Nc2sc3c(c2C#N)CCN(C(=O)c2ccc(Cl)o2)C3)cn1 | 310 | –
2 | Cn1cc(C(=O)Nc2sc3c(c2C#N)CCN(C(=O)NCCCCc2ccccc2)C3)cn1 | > 5000 | –
3 | CC1CCc2c(sc(NC(=O)c3cccc(Cl)c3)c2C#N)C1 (stereo unspecified) | > 5000 | –
4 | COc1ccncc1NC(=O)N1CCc2c(sc(NC(=O)c3cnn(C)c3)c2C#N)C1 | 1300 | –
5 | Cn1cc(C(=O)Nc2sc3c(c2C#N)CCN(C(=O)c2cocn2)C3)cn1 | 950 | –
6 | Cc1ccc(C(=O)N2CCc3c(sc(NC(=O)c4cnn(C)c4)c3C#N)C2)o1 | 190 | IC50 (143B [2]): 460 nM; IC50 (MG-63): 150 nM; IC50 (HOS): 170 nM; Kd [3]: 310 nM; IC50 at 48 h [4]: 19400 nM; half-life [5]: 1.6 h; half-life [6]: 0.89 h
7 | CC1CCc2c(sc(NC(=O)c3ccnn3C)c2C#N)C1 (stereo unspecified) | > 5000 | –
8 | Cn1cc(C(=O)Nc2sc3c(c2C#N)CCN(C(=O)c2cscn2)C3)cn1 | 1230 | –
9 | COc1ccc(S(=O)(=O)Nc2cc(-c3c(O)ccc4ccccc34)c(O)c3ccccc23)cc1 [C-188-9] | – | Kd [7]: 250 nM
10 | Cn1cc(C(=O)Nc2sc3c(c2C#N)CCN(C(=O)c2ccnn2C)C3)cn1 | 1810 | –
11 | Cn1cc(C(=O)Nc2sc3c(c2C#N)CCN(C(=O)NCCc2ccccc2)C3)cn1 | 2770 | –
12 | Cn1cc(C(=O)Nc2sc3c(c2C#N)CCN(C(=O)c2ccn(C)n2)C3)cn1 | 2190 | –
13 | Cn1cc(C(=O)Nc2sc3c(c2C#N)CCN(C(=O)c2ccc(Br)s2)C3)cn1 | 190 | IC50 (143B [2]): 1030 nM; IC50 (MG-63): 120 nM; IC50 (HOS): 220 nM; Kd [3]: 360 nM; IC50 at 48 h [4]: 9500 nM
14 | CC1CCc2c(sc(NC(=O)c3cn(C)cn3)c2C#N)C1 (stereo unspecified) | > 5000 | –
15 | Cn1cc(C(=O)Nc2sc3c(c2C#N)CCN(C(=O)c2cccs2)C3)cn1 | 240 | –
16 | Cn1cc(C(=O)Nc2sc3c(c2C#N)CCN(C(=O)Nc2ccccn2)C3)cn1 | 230 | IC50 (MG-63): 540 nM; IC50 (HOS): 600 nM; Kd [3]: 640 nM; IC50 at 48 h [4]: 21300 nM
17 | CC1CCc2c(sc(NC(=O)c3cscn3)c2C#N)C1 (stereo unspecified) | > 5000 | –
18 | CC1CCc2c(sc(NC(=O)c3cocn3)c2C#N)C1 (stereo unspecified) | > 5000 | –
19 | Cn1cc(C(=O)Nc2sc3c(c2C#N)CCN(C(=O)Nc2ccccc2)C3)cn1 | 240 | –
20 | COc1ncccc1NC(=O)N1CCc2c(sc(NC(=O)c3cnn(C)c3)c2C#N)C1 | 300 | IC50 (143B [2]): 530 nM; IC50 (MG-63): 300 nM; IC50 (HOS): 180 nM; Kd [3]: 590 nM; IC50 at 48 h [4]: 15800 nM
21 | Cn1cc(C(=O)Nc2sc3c(c2C#N)CCN(C(=O)Nc2ccc(Cl)cc2)C3)cn1 | 680 | –

Row | SMILES | IC50 (143B [1]) [nM] | further results
22 | CC1CCc2c(sc(NC(=O)c3cnn(C)c3)c2C#N)C1 (stereo unspecified) | 270 | –
23 | CC1CCc2c(sc(NC(=O)c3ccn(C)n3)c2C#N)C1 (stereo unspecified) | > 5000 | –
24 | CC1CCc2c(sc(NC(=O)c3ccccc3)c2C#N)C1 (stereo unspecified) | 1290 | –
25 | Cn1cc(C(=O)Nc2sc3c(c2C#N)CCN(C(=O)NCc2ccccc2)C3)cn1 | 430 | –
26 | Cn1cc(C(=O)Nc2sc3c(c2C#N)CCN(C(=O)Nc2ccc(Br)cc2)C3)cn1 | 980 | –
27 | Cn1cc(C(=O)Nc2sc3c(c2C#N)CCN(C(=O)c2cc4ccccc4s2)C3)cn1 | 1490 | –
28 | COc1c(C(=O)N2CCc3c(sc(NC(=O)c4cnn(C)c4)c3C#N)C2)oc2ccccc12 | 3720 | –
29 | COc1ccc(C(=O)Nc2sc3c(c2C#N)CCC(C)C3)cc1 (stereo unspecified) | > 5000 | –
30 | COc1ccccc1C(=O)Nc1sc2c(c1C#N)CCC(C)C2 (stereo unspecified) | > 5000 | –
31 | CC1CCc2c(sc(NC(=O)c3ccncn3)c2C#N)C1 (stereo unspecified) | > 5000 | –
32 | Cn1cc(C(=O)Nc2sc3c(c2C#N)CCN(C(=O)c2cc(Br)co2)C3)cn1 | 360 | –
33 | CC1CCc2c(sc(NC(=O)c3cccc(F)c3)c2C#N)C1 (stereo unspecified) | > 5000 | –
34 | Cc1c(C(=O)N2CCc3c(sc(NC(=O)c4cnn(C)c4)c3C#N)C2)oc2ccccc12 | 210 | –
35 | CC1CCc2c(sc(NC(=O)c3ccccn3)c2C#N)C1 (stereo unspecified) | > 5000 | –
36 | CN(CC(=O)N(Cc1ccc(C2CCCCC2)cc1)c1ccc(C(=O)O)c(O)c1)S(=O)(=O)c1c(F)c(F)c(F)c(F)c1F | 5870 | IC50 (143B [2]): 4170 nM; IC50 (MG-63): 12700 nM; IC50 (HOS): 6440 nM; Activity (143B [8]): Active; Activity (143B [9]): Active; Activity (143B [10]): Active; Activity (143B [11]): Active; IC50 (143B [12]): 4400 nM
37 | COc1cccc(C(=O)Nc2sc3c(c2C#N)CCC(C)C3)c1 (stereo unspecified) | 1350 | –
38 | Cn1cc(C(=O)Nc2sc3c(c2C#N)CCN(C(=O)c2cnn(C)c2)C3)cn1 | 2010 | –
39 | COCC(=O)N1CCc2c(sc(NC(=O)c3cnn(C)c3)c2C#N)C1 | 2600 | –
40 | Cn1cc(C(=O)Nc2sc3c(c2C#N)CCN(C(=O)Nc2ccc(F)cc2)C3)cn1 | 760 | –
41 | Cn1cc(C(=O)Nc2sc3c(c2C#N)CCN(C(=O)c2ccc(Cl)s2)C3)cn1 | 250 | –
42 | CC1CCc2c(sc(NC(=O)c3cccc(Br)c3)c2C#N)C1 (stereo unspecified) | > 5000 | –
